{"source": "paper PMC9738620", "about": "“Computer- and NMR-Aided Design of Small-Molecule Inhibitors of the Hub1 Protein” (Molecules, 2022)", "molecules": {"B1": {"name": "Hub1 1-73 (protein)", "chain": "MIEVVCNDRLGKKVRVKCNTDDTIGDLKKLIAAQTGTRWNKIVLKKWYTIFKDHVSLGDYEIHDGMNLELYYQ"}}, "key": {"Hub1 [1]": {"biological_target": "T1, Hub1 (Saccharomyces cerevisiae, UniProt Q6Q546)", "T1 sequence (Q6Q546 whole entry)": "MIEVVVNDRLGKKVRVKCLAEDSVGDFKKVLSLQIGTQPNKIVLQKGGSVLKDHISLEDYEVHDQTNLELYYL", "assay": "biochemical", "description": "Hub1 buffered in 20 mM HEPES, pH 7.5, 100 mM NaCl, 0.05% Tween-20 was labeled using His-Tag Labelling Kit RED-tris-NTA 2nd generation (MO-L018, NanoTemper, Munich, Germany), according to the manufacturer’s protocol. […] The final concentration of Hub1 was 50 nM. All measurements were calculated on a Monolith NT.115 instrument (NanoTemper, Munich, Germany) using the standard capillaries at the excitation power of 60% and the medium MST power in duplicates. The results were analyzed in GraphPad Prism software (GraphPad Prism version 8.0.0 for Windows, GraphPad Software, San Diego, CA, USA)."}, "Hub1 [2]": {"biological_target": "T1, Hub1", "description": "The NMR measurements were carried out at 300 K on an ultrashielded 600 MHz Bruker AVANCE 3 (Bruker Corporation, Billerica, MA, USA) spectrometer equipped with a liquid nitrogen cryogenic system. Uniform ^15N isotope labeling was achieved by the expression of the protein in the M9 minimal media containing ^15NH4Cl as the sole nitrogen source. The NMR buffer for ^15N-labeled protein was PBS pH 7.4 with 5 mM DTT (dithiothreitol). To provide a lock signal, 10% (v/v) of D2O was added to the samples. Water suppression was carried out using the WATERGATE sequence. Stock solutions of the inhibitors used for titration were prepared in DMSO-d6. The binding of small molecule fragments towards Hub1 was measured with the 2D SOFAST-HMQC spectra of the ^15N-labeled Hub1 recombinant protein in 3-mm NMR capillaries. For the preliminary screening, the mixture of three compounds was added in a molar ratio compound to protein 1:10. Then the ^1H and SOFAST-HMQC spectrum was recorded and compared with the reference spectrum of the protein Hub1 titrated with a suitable amount of DMSO. When any activity occurred, all compounds which were in the mixture were tested one by one. The individual spectra were recorded in 10-fold excess of the inhibitor either by ^1H NMR or SOFAST-HMQC. […] The spectra were processed with TopSpin 3.2 software (Bruker Corporation, Billerica, MA, USA)."}, "Snu66 peptide-14": {"biological_target": "T2, Snu66 peptide-14 (Saccharomyces cerevisiae)", "T2 chain": "TNEIREKLGM", "assay": "MST"}}, "note": "Ends that are not written are not given here."}
{"molecule": "TNEIREKLGM [Peptide-14]", "values": [{"measurement": "Kd", "setting": "Hub1 [1]", "result": "14 ± 8.3", "unit": "µM"}]}
{"molecule": "IREKLGM [Peptide-11]", "values": [{"measurement": "binding to Hub1 by MST (in words)", "setting": "Hub1 [1]; MST, labeled Hub1 50 nM, peptide […] to 250 µM, pH 7.5, duplicates", "result": "no significant binding events"}, {"measurement": "changes in chemical shifts (in words)", "setting": "Hub1 [2]; 1H NMR, Hub1:peptide ratio 1:1 to 1:10, 300 K", "result": "changes in chemical shifts in the aliphatic (δ = 0.04 ppm) and aromatic (δ = 6.5 ppm) regions"}, {"measurement": "chemical shift changes, aliphatic region (δ)", "setting": "Hub1 [2]; 1H NMR, Hub1:peptide ratio 1:1 to 1:10, 300 K, aliphatic region", "result": 0.04, "unit": "ppm"}, {"measurement": "buffer pH after titration", "setting": "Hub1 [2]; after titration of Hub1 with peptide", "result": 6.7}]}
{"molecule": "B1", "values": [{"measurement": "Kd", "setting": "Snu66 peptide-14", "result": 14, "unit": "µM"}]}
